The text below walks through data of patent US10072011B2, “Substituted bridged urea analogs as sirtuin modulators” (GlaxoSmithKline Intellectual Property (No.2) Limited, priority 2014, dated 2018).

Molecules are shown by their SMILES. Where two headings read alike, the source gives them in different places.

The target in this test is T1, SIRT1 (Homo sapiens, UniProt Q96EB6).
T1 sequence (Q96EB6 1-747): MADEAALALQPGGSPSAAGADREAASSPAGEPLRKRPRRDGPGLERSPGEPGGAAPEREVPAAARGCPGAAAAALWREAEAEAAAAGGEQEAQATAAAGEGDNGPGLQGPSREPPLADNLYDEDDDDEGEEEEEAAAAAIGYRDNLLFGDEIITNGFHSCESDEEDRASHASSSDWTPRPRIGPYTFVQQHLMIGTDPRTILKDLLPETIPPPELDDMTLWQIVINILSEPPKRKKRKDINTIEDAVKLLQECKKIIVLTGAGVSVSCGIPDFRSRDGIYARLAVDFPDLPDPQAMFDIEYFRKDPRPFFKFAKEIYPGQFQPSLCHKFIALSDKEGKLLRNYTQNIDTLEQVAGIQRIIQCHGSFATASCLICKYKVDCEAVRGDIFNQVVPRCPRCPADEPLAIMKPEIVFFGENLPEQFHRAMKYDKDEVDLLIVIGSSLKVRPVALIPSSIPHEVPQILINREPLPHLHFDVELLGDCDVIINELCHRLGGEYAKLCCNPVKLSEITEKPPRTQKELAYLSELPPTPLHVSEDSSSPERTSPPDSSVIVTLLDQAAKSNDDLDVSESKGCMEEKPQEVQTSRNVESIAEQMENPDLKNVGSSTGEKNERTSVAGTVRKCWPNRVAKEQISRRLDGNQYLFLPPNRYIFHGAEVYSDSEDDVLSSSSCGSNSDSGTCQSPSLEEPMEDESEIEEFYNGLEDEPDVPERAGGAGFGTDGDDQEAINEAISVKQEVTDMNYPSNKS
The test is described as follows: Trp mass spectrometry assay of SIRT1 activation (Ac-R-H-K-K(Ac)-W-NH2 peptide). The format is biochemical. Conditions: for Emax: 25 min, read-out: TRP MAX RESP (percent maximum fold activation). The procedure, abridged:
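N-terminal His-tagged human SIRT1, expressed in BL21(DE3) and purified, was incubated 25 min with an acetylated Trp peptide and NAD plus test compound at varying concentrations, then quenched with formic acid. OAADPR or deacetylated peptide was quantified by mass spectrometry versus compound-free control; EC1.5 is the concentration giving 50% activity increase, with percent maximum activation.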

Setting [1] is: Trp peptide 0.5 μM, 120 μM βNAD+, 10 nM SIRT1, 25 min at 25° C., relative to control (100%).
Setting [2] is: Trp peptide 0.5 μM, 120 μM βNAD+, 10 nM SIRT1, 25 min at 25° C.

Consider `Cc1nc(NC(=O)N2c3nc(C(=O)N[C@H](C)C(F)(F)F)ccc3N3CC[C@H]2C3)co1` [Example 25, (4S)—N5-(2-methyloxazol-4-yl)-N7-((R)-1,1,1-trifluoropropan-2-yl)-3,4-dihydro-1,4-methanopyrido[2,3-b][1,4]diazepine-5,7(2H)-dicarboxamide], for which, under setting [1], the Emax was more than 150%. Moreover, the “TRP Activity (EC1.5, concentration of test compound that results in 150% activation of SIRT1)” value under setting [2] is listed as “A (EC1.5<1 μM)”.
The corresponding values for `CC[C@H](C)NC(=O)c1ccc2c(n1)N(C(=O)Nc1ccccn1)[C@H]1CCN2C1` [Example 26, (4S)—N7-((S)-sec-butyl)-N5-(pyridin-2-yl)-3,4-dihydro-1,4-methanopyrido[2,3-b][1,4]diazepine-5,7(2H)-dicarboxamide] are more than 150% and “A (EC1.5<1 μM)”.
For `O=C(NC1CCCCC1)c1ccc2c(n1)N(C(=O)Nc1ccccn1)[C@H]1CCN2C1` [Example 27, (4S)—N7-cyclohexyl-N5-(pyridin-2-yl)-3,4-dihydro-1,4-methanopyrido[2,3-b][1,4]diazepine-5,7(2H)-dicarboxamide], the Emax is more than 150%. Moreover, the “TRP Activity (EC1.5, concentration of test compound that results in 150% activation of SIRT1)” value under setting [2] was “A (EC1.5<1 μM)”.
Consider `O=C(NCC1(CO)CC1)c1ccc2c(n1)N(C(=O)Nc1ccccn1)[C@H]1CCN2C1` [Example 28, (4S)—N7-((1-(hydroxymethyl)cyclopropyl)methyl)-N5-(pyridin-2-yl)-3,4-dihydro-1,4-methanopyrido[2,3-b][1,4]diazepine-5,7(2H)-dicarboxamide], for which the Emax under setting [1] is more than 150%. For the same molecule, the “TRP Activity (EC1.5, concentration of test compound that results in 150% activation of SIRT1)” value under setting [2] is recorded as “B (EC1.5 1-25 μM)”.
The corresponding values for `CC(C)[C@@H](NC(=O)c1ccc2c(n1)N(C(=O)Nc1ccccn1)[C@H]1CCN2C1)C(F)(F)F` [Example 29, (4S)—N5-(pyridin-2-yl)-N7-((R)-1,1,1-trifluoro-3-methylbutan-2-yl)-3,4-dihydro-1,4-methanopyrido[2,3-b][1,4]diazepine-5,7(2H)-dicarboxamide] are more than 150% and “A (EC1.5<1 μM)”.
The corresponding values for `CC[C@@H](CO)NC(=O)c1ccc2c(n1)N(C(=O)Nc1ccccn1)[C@H]1CCN2C1` [Example 30, (4S)—N7-((S)-1-hydroxybutan-2-yl)-N5-(pyridin-2-yl)-3,4-dihydro-1,4-methanopyrido[2,3-b][1,4]diazepine-5,7(2H)-dicarboxamide] are more than 150% and “A (EC1.5<1 μM)”.
For `CC[C@H](NC(=O)c1ccc2c(n1)N(C(=O)Nc1ccccn1)[C@H]1CCN2C1)C(F)(F)F` [Example 31, (4S)—N5-(pyridin-2-yl)-N7-((S)-1,1,1-trifluorobutan-2-yl)-3,4-dihydro-1,4-methanopyrido[2,3-b][1,4]diazepine-5,7(2H)-dicarboxamide], in that order: more than 150% and “A (EC1.5<1 μM)”.
`CC(C)NC(=O)c1ccc2c(n1)N(C(=O)Nc1ccccn1)[C@H]1CCN2C1` [Example 32, (4S)—N7-isopropyl-N5-(pyridin-2-yl)-3,4-dihydro-1,4-methanopyrido[2,3-b][1,4]diazepine-5,7(2H)-dicarboxamide]: the Emax is more than 150%. Under setting [2], the “TRP Activity (EC1.5, concentration of test compound that results in 150% activation of SIRT1)” value is reported as “A (EC1.5<1 μM)”.
On to `CC[C@@H](C)NC(=O)c1ccc2c(n1)N(C(=O)Nc1ccccn1)[C@H]1CCN2C1` [Example 33, (4S)—N7-((R)-sec-butyl)-N5-(pyridin-2-yl)-3,4-dihydro-1,4-methanopyrido[2,3-b][1,4]diazepine-5,7(2H)-dicarboxamide], for which, under setting [1], the Emax is more than 150%. In addition, the “TRP Activity (EC1.5, concentration of test compound that results in 150% activation of SIRT1)” value under setting [2] is reported as “A (EC1.5<1 μM)”.
In the case of `O=C(NC[C@@H](O)C(F)(F)F)c1ccc2c(n1)N(C(=O)Nc1ccccn1)[C@H]1CCN2C1` [Example 34, (4S)—N5-(pyridin-2-yl)-N7-((R)-3,3,3-trifluoro-2-hydroxypropyl)-3,4-dihydro-1,4-methanopyrido[2,3-b][1,4]diazepine-5,7(2H)-dicarboxamide], the Emax under setting [1] is more than 150%. The “TRP Activity (EC1.5, concentration of test compound that results in 150% activation of SIRT1)” value under setting [2] is “A (EC1.5<1 μM)”.
Turning to `O=C(NC1CCCC1)c1ccc2c(n1)N(C(=O)Nc1ccccn1)[C@H]1CCN2C1` [Example 35, (4S)—N7-cyclopentyl-N5-(pyridin-2-yl)-3,4-dihydro-1,4-methanopyrido[2,3-b][1,4]diazepine-5,7(2H)-dicarboxamide], the Emax under setting [1] was more than 150%. In addition, the “TRP Activity (EC1.5, concentration of test compound that results in 150% activation of SIRT1)” value under setting [2] is reported as “A (EC1.5<1 μM)”.
For `O=C(NCC1(O)CC1)c1ccc2c(n1)N(C(=O)Nc1ccccn1)[C@H]1CCN2C1` [Example 36, (4S)—N7-((1-hydroxycyclopropyl)methyl)-N5-(pyridin-2-yl)-3,4-dihydro-1,4-methanopyrido[2,3-b][1,4]diazepine-5,7(2H)-dicarboxamide], in that order: more than 150% and “B (EC1.5 1-25 μM)”.
The corresponding values for `CC(C)CNC(=O)c1ccc2c(n1)N(C(=O)Nc1ccccn1)[C@H]1CCN2C1` [Example 37, (4S)—N7-isobutyl-N5-(pyridin-2-yl)-3,4-dihydro-1,4-methanopyrido[2,3-b][1,4]diazepine-5,7(2H)-dicarboxamide] are more than 150% and “A (EC1.5<1 μM)”.
Regarding `O=C(NCC1CC1)c1ccc2c(n1)N(C(=O)Nc1ccc(F)cn1)[C@H]1CCN2C1` [Example 38, (4S)—N7-(cyclopropylmethyl)-N5-(5-fluoropyridin-2-yl)-3,4-dihydro-1,4-methanopyrido[2,3-b][1,4]diazepine-5,7(2H)-dicarboxamide], the Emax under setting [1] was more than 150%. Besides, the “TRP Activity (EC1.5, concentration of test compound that results in 150% activation of SIRT1)” value under setting [2] is “A (EC1.5<1 μM)”.
The corresponding values for `O=C(NCCF)c1ccc2c(n1)N(C(=O)Nc1ccccn1)[C@H]1CCN2C1` [Example 39, (4S)—N7-(2-fluoroethyl)-N5-(pyridin-2-yl)-3,4-dihydro-1,4-methanopyrido[2,3-b][1,4]diazepine-5,7(2H)-dicarboxamide] are more than 150% and “A (EC1.5<1 μM)”.
The corresponding values for `CCCNC(=O)c1ccc2c(n1)N(C(=O)Nc1ccccn1)[C@H]1CCN2C1` [Example 40, (4S)—N7-propyl-N5-(pyridin-2-yl)-3,4-dihydro-1,4-methanopyrido[2,3-b][1,4]diazepine-5,7(2H)-dicarboxamide] are more than 150% and “A (EC1.5<1 μM)”.
Turning to `CC(C)(CO)CNC(=O)c1ccc2c(n1)N(C(=O)Nc1ccccn1)[C@H]1CCN2C1` [Example 41, (4S)—N7-(3-hydroxy-2,2-dimethylpropyl)-N5-(pyridin-2-yl)-3,4-dihydro-1,4-methanopyrido[2,3-b][1,4]diazepine-5,7(2H)-dicarboxamide], the Emax under setting [1] was more than 150%. Moreover, the “TRP Activity (EC1.5, concentration of test compound that results in 150% activation of SIRT1)” value under setting [2] is on record as “B (EC1.5 1-25 μM)”.
Consider `O=C(NC[C@H]1CCCO1)c1ccc2c(n1)N(C(=O)Nc1ccccn1)[C@H]1CCN2C1` [Example 42, (4S)—N5-(pyridin-2-yl)-N7-(((R)-tetrahydrofuran-2-yl)methyl)-3,4-dihydro-1,4-methanopyrido[2,3-b][1,4]diazepine-5,7(2H)-dicarboxamide], for which the Emax under setting [1] is more than 150%. Further, the “TRP Activity (EC1.5, concentration of test compound that results in 150% activation of SIRT1)” value under setting [2] is “B (EC1.5 1-25 μM)”.
For `CC(C)[C@@H](C)NC(=O)c1ccc2c(n1)N(C(=O)Nc1ccccn1)[C@H]1CCN2C1` [Example 45, (4S)—N7-((R)-3-methylbutan-2-yl)-N5-(pyridin-2-yl)-3,4-dihydro-1,4-methanopyrido[2,3-b][1,4]diazepine-5,7(2H)-dicarboxamide], in that order: more than 150% and “A (EC1.5<1 μM)”.
The corresponding values for `O=C(N[C@H](C1CC1)C(F)(F)F)c1ccc2c(n1)N(C(=O)Nc1ccccn1)[C@H]1CCN2C1` [Example 46, (4S)—N7-((R)-1-cyclopropyl-2,2,2-trifluoroethyl)-N5-(pyridin-2-yl)-3,4-dihydro-1,4-methanopyrido[2,3-b][1,4]diazepine-5,7(2H)-dicarboxamide] are more than 150% and “A (EC1.5<1 μM)”.
